From ChEMBL document CHEMBL1143882, “Selective cell adhesion inhibitors: Barbituric acid based alpha4beta7--MAdCAM inhibitors” (Bioorg Med Chem Lett, 2008)

Tests used:
[1] = target: T1, Integrin alpha-4/beta-7 (Homo sapiens, UniProt P13612+P26010); assay: Inhibition of human integrin alpha-4-beta-7-MAdCAM interaction in human RPMI 8866 cells by whole-cell adhesion assay; assay type: cell-based
T1 sequence (P13612 whole entry): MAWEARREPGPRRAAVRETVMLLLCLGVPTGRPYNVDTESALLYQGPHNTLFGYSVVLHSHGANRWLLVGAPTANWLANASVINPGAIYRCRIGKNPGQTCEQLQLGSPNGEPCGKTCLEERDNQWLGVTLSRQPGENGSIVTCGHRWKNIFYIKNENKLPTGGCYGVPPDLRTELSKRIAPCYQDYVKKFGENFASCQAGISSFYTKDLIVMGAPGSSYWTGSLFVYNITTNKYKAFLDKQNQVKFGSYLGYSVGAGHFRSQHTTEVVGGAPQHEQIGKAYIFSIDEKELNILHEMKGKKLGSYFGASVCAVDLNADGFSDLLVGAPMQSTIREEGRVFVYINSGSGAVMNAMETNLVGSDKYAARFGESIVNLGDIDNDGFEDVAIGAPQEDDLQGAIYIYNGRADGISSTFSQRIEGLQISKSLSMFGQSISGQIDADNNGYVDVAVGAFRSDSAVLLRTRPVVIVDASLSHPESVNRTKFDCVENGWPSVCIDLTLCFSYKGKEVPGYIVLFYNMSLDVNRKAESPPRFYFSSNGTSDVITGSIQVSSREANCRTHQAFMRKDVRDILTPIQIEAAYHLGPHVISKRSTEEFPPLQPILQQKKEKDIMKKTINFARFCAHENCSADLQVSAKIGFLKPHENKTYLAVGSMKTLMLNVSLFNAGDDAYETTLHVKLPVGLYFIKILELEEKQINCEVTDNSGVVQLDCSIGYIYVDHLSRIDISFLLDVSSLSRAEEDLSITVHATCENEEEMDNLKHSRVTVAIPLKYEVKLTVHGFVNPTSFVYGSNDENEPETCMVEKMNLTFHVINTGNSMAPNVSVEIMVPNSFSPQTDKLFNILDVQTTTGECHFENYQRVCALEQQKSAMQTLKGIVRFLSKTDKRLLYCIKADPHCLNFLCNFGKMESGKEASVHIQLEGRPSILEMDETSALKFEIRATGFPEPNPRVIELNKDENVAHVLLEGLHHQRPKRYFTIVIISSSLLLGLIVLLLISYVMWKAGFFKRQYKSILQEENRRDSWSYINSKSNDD
T1 sequence (P26010 whole entry): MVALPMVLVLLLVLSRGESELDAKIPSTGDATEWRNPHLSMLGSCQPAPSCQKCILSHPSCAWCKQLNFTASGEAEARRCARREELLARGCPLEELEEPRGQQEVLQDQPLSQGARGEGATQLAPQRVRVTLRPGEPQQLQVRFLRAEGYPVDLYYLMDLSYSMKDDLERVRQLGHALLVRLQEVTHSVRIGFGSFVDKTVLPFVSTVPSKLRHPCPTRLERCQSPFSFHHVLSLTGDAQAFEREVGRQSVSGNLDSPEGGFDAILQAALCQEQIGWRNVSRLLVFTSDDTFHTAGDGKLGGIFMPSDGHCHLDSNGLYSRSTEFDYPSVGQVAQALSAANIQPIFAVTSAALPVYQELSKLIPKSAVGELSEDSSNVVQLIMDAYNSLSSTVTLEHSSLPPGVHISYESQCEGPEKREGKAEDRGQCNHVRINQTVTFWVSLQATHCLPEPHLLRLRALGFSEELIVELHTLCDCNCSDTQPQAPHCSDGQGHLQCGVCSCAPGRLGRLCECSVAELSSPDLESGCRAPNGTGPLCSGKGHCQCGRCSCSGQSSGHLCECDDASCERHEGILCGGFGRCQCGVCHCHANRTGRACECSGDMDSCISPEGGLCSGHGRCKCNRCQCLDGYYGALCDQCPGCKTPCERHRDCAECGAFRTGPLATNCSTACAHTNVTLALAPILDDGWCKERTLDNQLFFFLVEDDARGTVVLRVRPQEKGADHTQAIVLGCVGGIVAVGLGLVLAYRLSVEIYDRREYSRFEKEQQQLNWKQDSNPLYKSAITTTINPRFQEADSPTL

[2] = target: Integrin alpha-4/beta-1 (Homo sapiens, UniProt P05556+P13612); assay: Inhibition of integrin alpha-4-beta-1-VCAM interaction; assay type: protein-complex assay
Integrin alpha-4/beta-1, sequence (P05556 whole entry, one chain of several): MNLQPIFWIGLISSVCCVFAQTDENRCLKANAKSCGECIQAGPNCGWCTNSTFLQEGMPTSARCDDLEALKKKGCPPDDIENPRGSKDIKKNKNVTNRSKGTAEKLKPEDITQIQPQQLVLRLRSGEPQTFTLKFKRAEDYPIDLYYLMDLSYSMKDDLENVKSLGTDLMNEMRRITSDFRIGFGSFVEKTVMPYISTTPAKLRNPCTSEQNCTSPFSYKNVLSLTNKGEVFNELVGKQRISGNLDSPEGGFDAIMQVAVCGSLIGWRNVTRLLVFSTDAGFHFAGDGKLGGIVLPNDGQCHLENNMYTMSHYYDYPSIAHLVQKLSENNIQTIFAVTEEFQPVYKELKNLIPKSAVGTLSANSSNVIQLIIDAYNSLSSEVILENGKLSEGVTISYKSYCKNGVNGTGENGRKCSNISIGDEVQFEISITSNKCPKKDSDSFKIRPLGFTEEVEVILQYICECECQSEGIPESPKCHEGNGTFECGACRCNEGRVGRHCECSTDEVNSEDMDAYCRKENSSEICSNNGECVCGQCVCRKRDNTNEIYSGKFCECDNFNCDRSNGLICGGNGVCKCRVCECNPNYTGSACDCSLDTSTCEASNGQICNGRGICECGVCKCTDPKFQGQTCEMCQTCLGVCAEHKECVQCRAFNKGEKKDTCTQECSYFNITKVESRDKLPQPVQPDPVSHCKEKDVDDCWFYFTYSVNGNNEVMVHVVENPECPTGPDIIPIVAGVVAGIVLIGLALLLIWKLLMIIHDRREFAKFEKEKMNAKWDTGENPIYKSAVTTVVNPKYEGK

[3] = target: Integrin alpha-5/beta-1 (Homo sapiens, UniProt P05556+P08648); assay: Inhibition of integrin alpha-5-beta-1-fibronectin interaction; assay type: protein-complex assay
Integrin alpha-5/beta-1, sequence (P05556 21-798 limits assumed): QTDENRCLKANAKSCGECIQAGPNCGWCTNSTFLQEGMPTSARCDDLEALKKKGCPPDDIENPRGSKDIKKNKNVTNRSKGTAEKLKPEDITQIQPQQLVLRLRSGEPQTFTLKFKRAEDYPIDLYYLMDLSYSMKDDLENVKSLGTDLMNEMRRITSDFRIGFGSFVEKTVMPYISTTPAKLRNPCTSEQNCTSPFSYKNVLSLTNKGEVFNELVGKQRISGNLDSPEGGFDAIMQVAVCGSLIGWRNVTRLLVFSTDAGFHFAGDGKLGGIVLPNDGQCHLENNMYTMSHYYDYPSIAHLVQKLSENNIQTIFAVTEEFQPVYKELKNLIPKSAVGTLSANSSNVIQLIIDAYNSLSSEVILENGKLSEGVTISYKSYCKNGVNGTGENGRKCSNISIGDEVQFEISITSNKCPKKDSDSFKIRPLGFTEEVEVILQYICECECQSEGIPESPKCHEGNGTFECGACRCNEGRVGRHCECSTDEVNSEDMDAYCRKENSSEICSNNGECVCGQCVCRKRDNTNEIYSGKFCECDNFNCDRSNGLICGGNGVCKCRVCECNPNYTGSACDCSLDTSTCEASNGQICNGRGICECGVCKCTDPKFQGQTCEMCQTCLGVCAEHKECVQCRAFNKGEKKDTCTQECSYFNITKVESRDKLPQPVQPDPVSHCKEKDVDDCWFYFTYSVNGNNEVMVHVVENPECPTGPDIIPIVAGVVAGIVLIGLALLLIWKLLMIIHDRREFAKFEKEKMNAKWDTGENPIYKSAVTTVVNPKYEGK
Integrin alpha-5/beta-1, sequence (P08648 42-894 limits assumed): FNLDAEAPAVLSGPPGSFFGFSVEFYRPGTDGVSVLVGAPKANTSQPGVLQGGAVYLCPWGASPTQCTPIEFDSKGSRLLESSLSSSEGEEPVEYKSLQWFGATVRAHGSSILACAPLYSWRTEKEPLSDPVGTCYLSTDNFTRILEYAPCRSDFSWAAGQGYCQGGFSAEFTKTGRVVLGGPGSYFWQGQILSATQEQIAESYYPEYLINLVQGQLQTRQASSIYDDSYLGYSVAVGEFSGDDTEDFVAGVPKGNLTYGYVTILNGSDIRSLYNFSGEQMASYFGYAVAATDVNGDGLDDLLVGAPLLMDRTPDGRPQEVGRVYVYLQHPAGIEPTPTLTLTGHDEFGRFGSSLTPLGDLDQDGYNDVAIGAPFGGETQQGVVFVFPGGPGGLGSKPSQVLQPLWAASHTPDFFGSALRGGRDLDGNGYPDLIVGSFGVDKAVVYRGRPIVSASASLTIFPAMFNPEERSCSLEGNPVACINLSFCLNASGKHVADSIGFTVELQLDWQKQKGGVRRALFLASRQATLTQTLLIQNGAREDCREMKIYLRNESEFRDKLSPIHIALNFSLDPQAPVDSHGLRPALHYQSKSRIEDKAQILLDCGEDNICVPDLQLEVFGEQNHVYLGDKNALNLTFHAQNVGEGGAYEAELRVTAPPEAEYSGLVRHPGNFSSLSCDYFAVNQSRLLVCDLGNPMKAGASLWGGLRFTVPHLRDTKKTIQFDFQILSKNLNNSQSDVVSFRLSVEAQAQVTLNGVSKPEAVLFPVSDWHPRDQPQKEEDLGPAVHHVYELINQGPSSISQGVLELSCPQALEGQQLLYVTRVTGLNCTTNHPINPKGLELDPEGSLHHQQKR
Integrin alpha-5/beta-1, sequence (P08648 895-1049 limits assumed): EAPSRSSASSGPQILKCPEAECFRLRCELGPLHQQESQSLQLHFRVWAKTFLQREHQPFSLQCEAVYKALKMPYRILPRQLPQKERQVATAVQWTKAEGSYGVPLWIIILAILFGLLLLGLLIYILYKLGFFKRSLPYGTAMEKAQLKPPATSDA

[4] = Oral bioavailability in mouse; assay type: ADME, organism-based; conditions: in vivo
[5] = Half life in mouse; assay type: ADME, organism-based; conditions: in vivo
[6] = species: Mus musculus; assay: AUC in mouse; assay type: ADME, organism-based, Plasma; conditions: in vivo
[7] = Clearance in mouse; assay type: ADME, organism-based; conditions: in vivo
[8] = Volume of distribution in mouse; assay type: ADME, organism-based; conditions: in vivo

## Cn1cc(/C=C2/C(=O)NC(=O)N(c3cccc4ccccc34)C2=O)c2ccccc21
[1]
  IC50: 180 nM

## O=C(/C=C1/C(=O)NC(=O)N(c2ccccc2)C1=O)/C=C/c1ccccc1
[1]
  IC50: 8600 nM

## O=C1NC(=O)N(c2ccccc2-c2ccccc2)C(=O)/C1=C\c1c[nH]c2ccccc12
[1]
  IC50: 260 nM
[2]
  IC50: > 20000 nM
[3]
  IC50: > 20000 nM

## O=C1NC(=O)N(c2ccccc2)C(=O)/C1=C\c1ccco1
[1]
  IC50: 1300 nM
[2]
  IC50: > 20000 nM
[3]
  IC50: > 20000 nM

## O=C1NC(=O)N(c2ccccc2)C(=O)/C1=C\c1ccc(C(F)(F)F)cc1
[1]
  IC50: 1300 nM

## O=C1NC(=O)N(c2ccc(Cl)cc2)C(=O)/C1=C\c1ccccc1
[1]
  IC50: 1000 nM

## O=C1NC(=O)N(c2ccccc2)C(=O)/C1=C\c1cc2ccccc2[nH]1
[1]
  IC50: 10000 nM

## CN1C(=O)/C(=C/c2c[nH]c3ccccc23)C(=O)N(c2cccc3ccccc23)C1=O
[1]
  IC50: 5500 nM

## O=C1NC(=O)N(c2ccccc2)C(=O)/C1=C\c1c[nH]c2ccccc12
[1]
  IC50: 900 nM

## O=C1NC(=O)N(c2ccccc2)C(=O)/C1=C\c1ccccc1
[1]
  IC50: 2200 nM

## O=C1NC(=O)N(c2cc(Cl)cc(Cl)c2)C(=O)/C1=C\c1ccccc1
[1]
  IC50: 1600 nM

## O=C1NC(=O)N(c2cccc3ccccc23)C(=O)/C1=C\c1c[nH]c2ccccc12
[4]
  bioavailability: 62%
[5]
  half-life: 4.1 h
[6]
  AUC: 170 mg·min/mL
[7]
  clearance: 71 mL/min/kg
[1]
  IC50: 60 nM
[2]
  IC50: > 20000 nM
[3]
  IC50: > 20000 nM
[8]
  Vd: 24.8 L/kg

## CC(C)(C)N1C(=O)NC(=O)/C(=C/c2c[nH]c3ccccc23)C1=O
[1]
  IC50: > 20000 nM

## Cn1cc(/C=C2/C(=O)NC(=O)N(c3ccccc3)C2=O)c2ccccc21
[1]
  IC50: 4100 nM
